Test results taken from patent publication US20240209376A1, “Specific Oligonucleotide-Programmed Readthrough of Nonsense Codons” (UNIVERSITY OF MASSACHUSETTS, priority 2021, published 2024).
“Also recorded” adds a separate entry of the source.

Experiments:
[1] = cited from earlier work
[2] = system: CAN1-luc expression construct premature stop codon; test: CAN1-luc expression construct readthrough (rabbit reticulocyte lysate); assay type: biochemical; conditions: oligo at +8 position downstream of premature stop codon
Source text: FIG. 4 illustrates one embodiment of a CAN1 arginine permease gene/luciferase expression construct (Can1-1uc). Upper panel: A schematic of the construct showing the relative position of a premature stop codon and a Can1 open reading frame and a luciferase gene with a natural terminal stop codon. Lower panel: A deoxyribonucleic acid sequence of the Can1-1uc construct with a TGA premature stop codon and a deoxyribonucleic acid oligo hybridized to the Can1-1uc construct at the +8 nucleotide position downstream of the premature stop codon.
FIG. 5 presents exemplary data showing readthrough of a CAN1-1uc expression construct premature stop codon with a DNA oligo hybridized at the +8 nucleotide position downstream of the premature stop codon.
The DNA antisense oligos contemplated herein were validated using a DNA expression construct comprising a premature stop codon and a luciferase gene. The basic methodology was used a CAN1 gene expression construct encoding an arginine permease amino acid transporter protein. The CAN1 expression construct positions a […] premature stop codon at the terminus of the CAN1 open reading frame subsequently followed by a luciferase open reading frame. See, FIG. 4. The DNA antisense oligo +8(70) having the nucleic acid sequence of 5′-[…]-3′ was then positioned at the +8 nucleic acid position downstream of the first nucleotide of the premature stop codon. […]

[3] = system: CFTR mRNA levels (NMD-mediator SMG1); test: mRNA analysis by qPCR in CFF-16HBEge cell lines; assay type: cell-based
Source text: The example presents the results of mRNA analysis by quantitative polymerase chain reaction and (qPCR) and protein analysis by Western Blot.

[4] = system: CFTR premature stop codon (G542X; UGAC, UGAG) mRNA; test: 511-565 CFTR nanoluciferase construct readthrough (RRL assay); assay type: biochemical; conditions: for readthrough promotion by fluoride-modified oligos: RRL assay
Source text: (§1) FIG. 6 presents one embodiment of a cystic fibrosis gene/nanoluciferase expression construct (511-565 CFTR). Upper panel: A schematic of the construct showing the relative position of a premature stop codon (UGAG or UGAC) within a cystic fibrosis open reading frame (CFTR) and a luciferase gene with a natural terminal stop codon. Lower panel: A deoxyribonucleic acid sequence of the CFTR construct with a TGA premature stop codon and a deoxyribonucleic acid oligo hybridized to the CFTR construct at the +8 nucleotide position downstream of the premature stop codon.
In one embodiment, the present invention contemplates a modified cystic fibrosis transmembrane conductance regulator (CFTR) deoxyribonucleic acid (DNA) construct. In one embodiment, the modified CFTR DNA construct comprises a CFTR open reading frame comprising a premature TGA stop codon. In one embodiment, the TGA premature stop codon is a G542X mutation. In one embodiment, the modified CFTR DNA construct further comprises a nanoluciferase gene and a natural stop codon. In one embodiment, the modified CFTR mRNA construct molecule is hybridized to a single stranded DNA antisense oligo at the +8 nucleotide position downstream of a TGA premature stop codon. In one embodiment, the DNA antisense oligo is 5′-[…]-3′. See, FIG. 6.
(§2) A 511-565 CFTR DNA expression vector construct was designed with several different codon configurations: i) a single wild type sense codon (“GGAG”) and a subsequent wild-type stop codon; ii) a premature stop codon “TGAG” comprising a G542X mutation (e.g., a strong stop codon); and iii) a premature stop codon “TGAC” comprising a G542X mutation (a weak stop codon) rendering an artificial readthrough-prone context. […] See, FIG. 7.

[5] = experimental data; cited from earlier work
[6] = system: CFTR wild type construct without premature stop codon (GGAG); test: 511-565 CFTR nanoluciferase construct expression, wild type; assay type: biochemical; conditions: increasing G418 concentrations
Source text: as §1
FIG. 8 presents exemplary data showing the effect of the aminoglycoside G418 on 511-565 CFTR construct expression.
as §2

Molecule: NC[C@H]1O[C@H](O[C@H]2[C@H](O)[C@@H](O[C@H]3O[C@H](CO)[C@@H](O)[C@H](N)[C@H]3O)[C@H](N)C[C@@H]2N)[C@H](N)C[C@@H]1O [tobramycin]
- rise in NAG, once daily arm less than three times daily regimen ([1]; adults and children): 33%
- elimination rate, once daily versus three times daily group ([1]; once daily group mostly dosed in the evening): lower elimination rate
- serum creatinine level during the course of treatment ([1]; paediatric group, single daily dose, compared with a rise with three divided doses): decreased
- efficacy, single daily versus multiple daily dosing regimen ([1]; patients with CF): equal efficacy

Molecule: 5′-GCGCCGGGCCTTTCTTTATGTTTTTGGCGT-3′ (DNA, backbone and methylation of C not given here) [+8(70), DNA antisense oligo at +8 position of CAN1-luc construct]
- readthrough of premature stop codon in CAN1-luc construct [2]: increases readthrough of a premature stop codon

Molecule: CCN(CC)S(=O)(=O)c1cc(Nc2nccc(-c3ccnc(-c4ccc(NC(=O)NC)cc4)c3)n2)ccc1Cl [SMG1i]
- CFTR WT mRNA [3]: smaller increase
- mRNA levels of the PTC alleles [3]: restores mRNA levels of the PTC alleles

Molecule: U^FCCAC^FTCAG^FTGTG^FATTC^FCAC^F
- readthrough promotion by fluoride-modified oligos [4]: promote readthrough in an RRL assay with improved stability and/or efficiency

Molecule: TCCACTCAGTGTGATTCCAC^F (2'-fluoro at 20, other sugars and backbone not given here; one 2'-fluoro at 3'-terminal nucleotide) [+8(47) oligo withone 2′-fluoride modification]
- readthrough promotion by fluoride-modified oligos [4]: promote readthrough in an RRL assay with improved stability and/or efficiency

Molecule: gentamicin
- relative toxicity among aminoglycosides [5]: more toxic than tobramycin and amikacin

Molecule: CN[C@@H]1[C@@H](O)[C@@H](O[C@H]2[C@H](O)[C@@H](O[C@H]3O[C@H]([C@H](C)O)[C@@H](O)[C@H](O)[C@H]3N)[C@H](N)C[C@@H]2N)OC[C@]1(C)O [G418]
- premature stop codon readthrough, G418 alone ([4]; UGAG and UGAC constructs, increasing G418 concentrations): promotes premature stop codon (UGAG and UGAC) readthrough in a concentration-dependent manner; also recorded: increasing expression of premature stop codon constructs
- readthrough rate at 0.5 μM and 0.1 μM G418 versus 1 μM G418 ([4]; weak (UGAC) and strong (UGAG) premature codon, +8(66) combination experiment (FIG. 9)): significantly higher readthrough rate
- wild type sense codon (GGAG) construct expression, G418 alone [6]: inhibits wild type sense codon (GGAG) readthrough in a concentration-dependent manner; also recorded: decreases the expression of wild type construct
